Laboratory results published in patent publication US20240383898A1, “PYRIDO RING COMPOUND, PREPARATION METHOD THEREFOR, INTERMEDIATE, COMPOSITION, AND APPLICATION” (YIYOU BIOTECH (SHANGHAI) CO., LTD, priority 2021, published 2024).

Legend:
JAK2 = target: T1, JAK2 (Homo sapiens, UniProt O60674); assay: In vitro activity test of JAK2 kinase (Caliper EZ Reader conversion assay); type: biochemical; details: enzyme activity, 10 concentrations from 1000 nM, 3-fold dilution
T1 construct: purchased Carna 08-045
T1 sequence (O60674 whole entry, species assumed): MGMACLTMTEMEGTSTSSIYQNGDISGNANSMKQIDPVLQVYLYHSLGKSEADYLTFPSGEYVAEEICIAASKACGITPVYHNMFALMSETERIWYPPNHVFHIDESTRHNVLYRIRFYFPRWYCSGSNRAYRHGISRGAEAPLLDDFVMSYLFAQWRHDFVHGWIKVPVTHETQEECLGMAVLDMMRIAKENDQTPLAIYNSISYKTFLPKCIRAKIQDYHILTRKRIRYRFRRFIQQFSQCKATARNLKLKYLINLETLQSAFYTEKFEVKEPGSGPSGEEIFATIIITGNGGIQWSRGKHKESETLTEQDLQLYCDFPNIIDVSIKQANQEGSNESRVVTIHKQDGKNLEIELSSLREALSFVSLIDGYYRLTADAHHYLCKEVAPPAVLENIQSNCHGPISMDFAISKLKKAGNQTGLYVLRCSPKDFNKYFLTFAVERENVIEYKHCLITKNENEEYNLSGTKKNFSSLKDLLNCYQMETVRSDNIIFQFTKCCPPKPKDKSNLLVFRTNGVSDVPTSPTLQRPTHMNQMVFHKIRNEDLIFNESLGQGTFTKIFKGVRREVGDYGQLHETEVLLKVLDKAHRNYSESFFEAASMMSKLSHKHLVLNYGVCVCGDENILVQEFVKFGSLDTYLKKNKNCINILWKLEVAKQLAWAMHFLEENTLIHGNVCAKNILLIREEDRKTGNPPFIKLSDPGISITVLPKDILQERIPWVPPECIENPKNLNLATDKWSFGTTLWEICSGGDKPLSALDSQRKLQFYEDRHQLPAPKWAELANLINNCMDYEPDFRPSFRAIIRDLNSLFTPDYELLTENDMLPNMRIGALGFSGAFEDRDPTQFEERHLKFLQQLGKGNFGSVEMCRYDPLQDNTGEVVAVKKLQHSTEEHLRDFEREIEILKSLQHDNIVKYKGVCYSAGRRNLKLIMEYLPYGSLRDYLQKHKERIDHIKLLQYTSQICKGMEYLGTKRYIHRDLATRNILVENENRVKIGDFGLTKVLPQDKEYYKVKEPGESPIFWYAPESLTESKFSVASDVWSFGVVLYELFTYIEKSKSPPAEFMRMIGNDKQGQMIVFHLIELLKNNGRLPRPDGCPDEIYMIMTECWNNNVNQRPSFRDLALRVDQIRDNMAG
Outline: (§1)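 JAK1 or JAK2 pre-incubated with compound (top 1000 nM, 3-fold, 10 points, duplicate) for 10 min at room temperature, then ATP plus substrate added. Substrate conversion read by mobility-shift on Caliper EZ Reader after stop solution. Inhibition normalized to no-enzyme and DMSO controls; IC50 from variable-slope four-parameter fit.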

JAK1 = target: T2, JAK1 (Homo sapiens, UniProt P23458); assay: In vitro activity test of JAK1 kinase (Caliper EZ Reader conversion assay); type: biochemical; details: enzyme activity, 10 concentrations from 1000 nM, 3-fold dilution
T2 construct: purchased Carna 08-114
T2 sequence (P23458 whole entry, species assumed): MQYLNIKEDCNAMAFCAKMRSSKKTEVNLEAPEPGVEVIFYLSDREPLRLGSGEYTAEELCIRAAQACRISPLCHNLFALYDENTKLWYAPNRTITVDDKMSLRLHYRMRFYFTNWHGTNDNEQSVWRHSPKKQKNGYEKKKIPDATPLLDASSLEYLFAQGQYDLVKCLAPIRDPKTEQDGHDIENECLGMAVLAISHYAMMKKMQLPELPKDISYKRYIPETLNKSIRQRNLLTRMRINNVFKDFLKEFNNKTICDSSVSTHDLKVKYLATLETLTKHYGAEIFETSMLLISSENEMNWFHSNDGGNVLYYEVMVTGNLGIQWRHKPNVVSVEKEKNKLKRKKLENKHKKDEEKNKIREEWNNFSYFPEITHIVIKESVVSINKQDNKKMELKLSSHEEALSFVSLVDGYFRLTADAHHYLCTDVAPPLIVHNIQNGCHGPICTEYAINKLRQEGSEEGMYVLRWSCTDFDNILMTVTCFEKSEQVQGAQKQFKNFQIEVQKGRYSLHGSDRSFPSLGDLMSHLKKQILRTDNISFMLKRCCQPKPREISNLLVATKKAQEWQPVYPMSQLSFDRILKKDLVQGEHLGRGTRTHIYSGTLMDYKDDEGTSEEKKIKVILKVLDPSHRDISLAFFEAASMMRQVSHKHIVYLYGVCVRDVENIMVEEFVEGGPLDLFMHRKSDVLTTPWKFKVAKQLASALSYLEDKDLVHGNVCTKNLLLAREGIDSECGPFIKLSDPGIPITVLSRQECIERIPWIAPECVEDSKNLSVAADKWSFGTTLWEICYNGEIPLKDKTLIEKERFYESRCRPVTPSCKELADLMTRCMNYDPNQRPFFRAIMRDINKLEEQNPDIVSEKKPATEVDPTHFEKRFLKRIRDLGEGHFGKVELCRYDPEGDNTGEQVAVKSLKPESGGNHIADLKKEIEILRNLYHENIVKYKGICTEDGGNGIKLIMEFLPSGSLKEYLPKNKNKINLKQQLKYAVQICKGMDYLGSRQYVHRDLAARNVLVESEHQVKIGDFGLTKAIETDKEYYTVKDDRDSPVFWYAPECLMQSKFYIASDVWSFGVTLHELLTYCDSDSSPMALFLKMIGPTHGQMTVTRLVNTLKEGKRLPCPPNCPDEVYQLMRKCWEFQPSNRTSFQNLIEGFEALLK
Outline: as §1

Structure (SMILES): C[C@@H](O)c1nc2cnc3[nH]ccc3c2n1[C@@H]1CN(CCCCC#N)CC12CC2 [LXS72, 5-((S)-7-(2-((R)-1-Hydroxyethyl)imidazo[4,5-d]pyrrolo[2,3-b]pyridin-1(6H)-yl)-5-azaspiro[2,4]hept-5-yl)pentanonitrile]
- IC50 (JAK2): 10 to 100 nM
- IC50 (JAK1): 10 to 100 nM

Structure (SMILES): C[C@@H](O)c1nc2cnc3[nH]ccc3c2n1[C@H]1CCN(CCCCCF)C1 [LXS73, (R)-1-(1-((S)-1-(5-fluoropentyl)pyrrolidin-3-yl)-1,6-dihydroimidazo[4,5-d]pyrrolo[2,3-b]pyridin-2-yl) ethanol]
- IC50 (JAK2): 100 to 1000 nM
- IC50 (JAK1): < 10 nM

Structure (SMILES): C[C@@H](O)c1nc2cnc3[nH]ccc3c2n1[C@H]1CCN(CC(=O)NCC(F)(F)F)C1 [LXS74, 2-((S)-3-(2-((R)-1-Hydroxyethyl)imidazo[4,5-d]pyrrolo[2,3-b]pyridin-1(6H)-yl)pyrrolidin-1-yl)-N-(2,2,2-trifluoroethyl)acetamide]
- IC50 (JAK2): 100 to 1000 nM
- IC50 (JAK1): < 10 nM

Structure (SMILES): CC(C(=O)NCC(F)(F)F)N1CC[C@H](n2c([C@@H](C)O)nc3cnc4[nH]ccc4c32)C1 (stereo partly drawn) [LXS75, 2-((S)-3-(2-((R)-1-Hydroxyethyl)imidazo[4,5-d]pyrrolo[2,3-b]pyridin-1(6H)-yl)pyrrolidin-1-yl)-N-(2,2,2-trifluoroethyl)propanamide]
- IC50 (JAK2): 100 to 1000 nM
- IC50 (JAK1): < 10 nM

Structure (SMILES): CCC(C(=O)NCC(F)(F)F)N1CC[C@H](n2c([C@@H](C)O)nc3cnc4[nH]ccc4c32)C1 (stereo partly drawn) [LXS76, 2-((S)-3-(2-((R)-1-Hydroxyethyl)imidazo[4,5-d]pyrrolo[2,3-b]pyridin-1(6H)-yl)pyrrolidin-1-yl)-N-(2,2,2-trifluoroethyl)butanamide]
- IC50 (JAK2): 100 to 1000 nM
- IC50 (JAK1): < 10 nM

Structure (SMILES): CCS(=O)(=O)N1CC(CC#N)(n2cc(-n3c(-c4ccc(C)o4)nc4cnc5[nH]ccc5c43)cn2)C1 [LXS77, 2-(1-(ethylsulfonyl)-3-(4-(2-(5-methylfuran-2-yl)imidazolyl[4,5-d]pyrrolo[2,3-b]pyridin-1(6H)-yl)-1H-pyrazol-1-yl)azetidin-3-yl) acetonitrile]
- IC50 (JAK2): < 10 nM
- IC50 (JAK1): 100 to 1000 nM

Structure (SMILES): N#CCn1cc(-n2c(C(F)(F)F)nc3cnc4[nH]ccc4c32)cn1 [LXS78, 2-(4-(2-(Trifluoromethyl)imidazo[4,5-d]pyrrolo[2,3-b]pyridin-1(6H)-yl)-1H-pyrazol-1-yl)acetonitrile]
- IC50 (JAK2): 10 to 100 nM
- IC50 (JAK1): 10 to 100 nM

Structure (SMILES): N#CCCn1cc(-n2cnc3cnc4[nH]ccc4c32)cn1 [LXS79, 3-(4-(Imidazo[4,5-d]pyrrolo[2,3-b]pyridin-1(6H)-yl)-1H-pyrazol-1-yl)propanenitrile]
- IC50 (JAK2): < 10 nM
- IC50 (JAK1): 100 to 1000 nM

Structure (SMILES): N#CCCn1cc(-n2c(-c3ccccc3Cl)nc3cnc4[nH]ccc4c32)cn1 [LXS80, 3-(4-(2-(2-Chlorophenyl)imidazo[4,5-d]pyrrolo[2,3-b]pyridin-1(6H)-yl)-1H-pyrazol-1-yl)propanenitrile]
- IC50 (JAK2): 10 to 100 nM
- IC50 (JAK1): 10 to 100 nM

Structure (SMILES): N#CCn1cc(-n2c(-c3ccc(CO)o3)nc3cnc4[nH]ccc4c32)cn1 [LXS81, 2-(4-(2-(5-(Hydroxymethyl)furan-2-yl)imidazo[4,5-d]pyrrolo[2,3-b]pyridin-1(6H)-yl)-1H-pyrazol-1-yl)acetonitrile]
- IC50 (JAK2): 10 to 100 nM
- IC50 (JAK1): 10 to 100 nM

Structure (SMILES): N#CCCn1cc(-n2c(-c3cccc(O)c3)nc3cnc4[nH]ccc4c32)cn1 [LXS82, 3-(4-(2-(3-Hydroxyphenyl)imidazo[4,5-d]pyrrolo[2,3-b]pyridin-1(6H)-yl)-1H-pyrazol-1-yl)propanenitrile]
- IC50 (JAK2): 10 to 100 nM
- IC50 (JAK1): 10 to 100 nM

Structure (SMILES): N#CCCn1cc(-n2c(-c3ccccc3F)nc3cnc4[nH]ccc4c32)cn1 [LXS83, 3-(4-(2-(2-Fluorophenyl)imidazo[4,5-d]pyrrolo[2,3-b]pyridin-1(6H)-yl)-1H-pyrazol-1-yl)propanenitrile]
- IC50 (JAK2): 10 to 100 nM
- IC50 (JAK1): 10 to 100 nM

Structure (SMILES): C[C@@H](O)c1nc2cnc3[nH]ncc3c2n1[C@H]1CCN(CCCC#N)C1 [LXS85, 4-((S)-3-(2-((R)-1-Hydroxyethyl)imidazo[4,5-d]pyrazolo[3,4-b]pyridin-1(6H)-yl)pyrrolidin-1-yl)butanenitrile]
- IC50 (JAK2): 100 to 1000 nM
- IC50 (JAK1): < 10 nM

Structure (SMILES): C[C@@H](O)c1nc2cnc3[nH]ccc3c2n1[C@@H]1CN(CCCC(F)(F)F)CC1F (stereo partly drawn) [LXS86, (1R)-1-(1-((3R)-4-fluoro-1-(4,4,4-trifluorobutyl)pyrrolidin-3-yl)-1,6-dihydroimidazo[4,5-d]pyrrolo[2,3-b]pyridin-2-yl)ethan-1-ol]
- IC50 (JAK2): 100 to 1000 nM
- IC50 (JAK1): < 10 nM

Structure (SMILES): C[C@@H](O)c1nc2cnc3[nH]ccc3c2n1[C@@H]1CN(CCCC(F)(F)F)C[C@H]1F [LXS87, (R)-1-(1-((3R,4R)-4-fluoro-1-(4,4,4-trifluorobutyl)pyrrolidin-3-yl)-1,6-dihydroimidazo[4,5-d]pyrrolo[2,3-b]pyridin-2-yl)ethan-1-ol]
- IC50 (JAK2): 100 to 1000 nM
- IC50 (JAK1): < 10 nM

Structure (SMILES): C[C@@H](O)c1nc2cnc3[nH]ccc3c2n1[C@H]1C[C@@H](CO)N(CCCC(F)(F)F)C1 [LXS89, (R)-1-(1-((3S,5S)-5-(hydroxymethyl)-1-(4,4,4-trifluorobutyl)pyrrolidin-3-yl)-1,6-dihydroimidazo[4,5-d]pyrrolo[2,3-b]pyridin-2-yl)ethan-1-ol]
- IC50 (JAK2): 100 to 1000 nM
- IC50 (JAK1): 10 to 100 nM

Structure (SMILES): C[C@@H](O)c1nc2cnc3[nH]ncc3c2n1[C@H]1CCN(CCCC(F)(F)F)C1 [LXS90, (R)-1-(1-((S)-1-(4,4,4-trifluorobutyl)pyrrolidin-3-yl)-1,6-dihydroimidazo[4,5-d]pyrazolo[3,4-b]pyridin-2-yl)ethan-1-ol]
- IC50 (JAK2): 100 to 1000 nM
- IC50 (JAK1): 10 to 100 nM

Structure (SMILES): C[C@@H](O)c1nc2cnc3[nH]ccc3c2n1[C@H]1C[C@H](CO)N(CCCC(F)(F)F)C1 [LXS91, (R)-1-(1-((3S,5R)-5-(hydroxymethyl)-1-(4,4,4-trifluorobutyl)pyrrolidin-3-yl)-1,6-dihydroimidazo[4,5-d]pyrrolo[2,3-b]pyridin-2-yl)ethan-1-ol]
- IC50 (JAK2): 100 to 1000 nM
- IC50 (JAK1): < 10 nM

Structure (SMILES): C[C@@H](O)c1nc2cnc3[nH]ncc3c2n1[C@@H]1CN(CCCC#N)CC1F (stereo partly drawn) [LXS93, 4-((4R)-3-Fluoro-4-(2-((R)-1-hydroxyethyl)imidazo[4,5-d]pyrazolo[3,4-b]pyridin-1(6H)-yl)pyrrolidin-1-yl)butanenitrile]
- IC50 (JAK2): 100 to 1000 nM
- IC50 (JAK1): < 10 nM

Structure (SMILES): C[C@@H](O)c1nc2cnc3[nH]ncc3c2n1[C@H]1C[C@@H](CO)N(CCCC#N)C1 [LXS94, 4-((2S,4S)-4-(2-((R)-1-Hydroxyethyl)imidazo[4,5-d]pyrazolo[3,4-b]pyridin-1(6H)-yl)-2-(hydroxymethyl)pyrrolidin-1-yl)butanenitrile]
- IC50 (JAK2): 100 to 1000 nM
- IC50 (JAK1): 10 to 100 nM

Structure (SMILES): C[C@@H](O)c1nc2cnc3[nH]ccc3c2n1[C@H]1CCN(CCC(F)(F)F)C1 [LXS96, (R)-1-(1-((S)-1-(3,3,3-trifluoropropyl)pyrrolidin-3-yl)imidazo[4,5-d]pyrrolo[2,3-b]pyridin-2-yl)ethanol]
- IC50 (JAK2): 100 to 1000 nM
- IC50 (JAK1): < 10 nM

Structure (SMILES): C[C@@H](O)c1nc2cnc3[nH]ccc3c2n1[C@H]1CCN(CCC(F)(F)C(F)(F)F)C1 [LXS97, (R)-1-(1-((S)-1-(3,3,4,4,4-Pentafluorobutyl)pyrrolidin-3-yl)imidazo[4,5-d]pyrrolo[2,3-b]pyridin-2-yl)ethanol]
- IC50 (JAK2): 100 to 1000 nM
- IC50 (JAK1): < 10 nM

Structure (SMILES): OCc1ccc(-c2nc3cnc4[nH]ccc4c3n2[C@H]2CCN(CCCC(F)(F)F)C2)o1 [LXS98, (S)-(5-(1-(1-(4,4,4-trifluorobutyl)pyrrolidin-3-yl)-1,6-dihydroimidazo[4,5-d]pyrrolo[2,3-b]pyridin-2-yl)furan-2-yl)methanol]
- IC50 (JAK2): 10 to 100 nM
- IC50 (JAK1): 10 to 100 nM
